Values quoted from earlier work as cited in patent US20170112867A1, “PHARMACEUTICAL COMBINATIONS OF […] RIBAVIRIN” (SANOVEL ILAC SANAYI VE TICARET ANONIM SIRKETI, priority 2014, published 2017).

Experiments:
[1] = system: chronic hepatitis C (CHC) infections; conditions: ribavirin alone, during or after therapy

For “1-β-Dribofuranosyl-1H-1,2,4-triazole-3-carboxamide [Ribavirin]”, the “HCV RNA levels” value [1] is listed as “did not reduce HCV RNA levels”, the “solubility in anhydrous alcohol” value (anhydrous alcohol) is listed as “slightly soluble” and the solubility in water is listed as “freely soluble”.
For `CC(C)OC(=O)[C@H](C)N[P@](=O)(OC[C@H]1O[C@@H](n2ccc(=O)[nH]c2=O)[C@](C)(F)[C@@H]1O)Oc1ccccc1` [Sofosbuvir, (S)-Isopropyl 2-((S)-(((2R,3R,4R,5R)-5-(2,4-dioxo3,4-dihydropyrimidin-1(2H)-yl)-4-fluoro-3-hydroxy-4-methyltetrahydrofuran-2yl)methoxy)-(phenoxy)phosphorylamino)propanoate], the “metabolism by Cytochromes P450 (CYP)” value (Cytochromes P450 (CYP)) is listed as “not metabolized”, the solubility (across the pH range of 2-7.7 at 37° C.) is listed as no less than 2000 µg/mL and the solubility in water is listed as “slightly soluble”.
